Drawing on US6936585B2, “Corticotropin releasing factor 2 receptor agonists” (priority 2002, dated 2005), this text covers EC50 and Emax for six compounds.

One experiment addresses T1, CRF2R (Homo sapiens, UniProt Q13324).
T1 sequence (Q13324 1-411): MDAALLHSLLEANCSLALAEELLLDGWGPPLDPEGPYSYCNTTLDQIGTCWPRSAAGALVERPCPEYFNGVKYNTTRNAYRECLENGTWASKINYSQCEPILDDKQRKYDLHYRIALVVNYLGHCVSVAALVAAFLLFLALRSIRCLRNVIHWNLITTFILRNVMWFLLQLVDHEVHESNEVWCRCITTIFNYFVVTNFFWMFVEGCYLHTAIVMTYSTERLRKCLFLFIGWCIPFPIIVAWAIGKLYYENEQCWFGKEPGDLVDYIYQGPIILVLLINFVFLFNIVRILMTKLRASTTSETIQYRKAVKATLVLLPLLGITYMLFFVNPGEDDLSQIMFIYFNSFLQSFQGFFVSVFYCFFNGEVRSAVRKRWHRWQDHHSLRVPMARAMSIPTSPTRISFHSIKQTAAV
In words: CRF2R agonist activation (EC50 / Emax), called comparative CRF binding. The class given is cell-based. The following applies: for EC50: read-out: CRF2R EC50; for Emax: read-out: CRF2R Emax. In a few lines: (§1)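 Cells expressing human CRF1R or CRF2R are exposed to peptide or vehicle control, and receptor activation is read as cAMP induction, measured in cell lysates or via a CRE-linked reporter gene.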

Another experiment has as its target T2, CRF1R (Homo sapiens, UniProt P34998).
T2 sequence (P34998 24-415): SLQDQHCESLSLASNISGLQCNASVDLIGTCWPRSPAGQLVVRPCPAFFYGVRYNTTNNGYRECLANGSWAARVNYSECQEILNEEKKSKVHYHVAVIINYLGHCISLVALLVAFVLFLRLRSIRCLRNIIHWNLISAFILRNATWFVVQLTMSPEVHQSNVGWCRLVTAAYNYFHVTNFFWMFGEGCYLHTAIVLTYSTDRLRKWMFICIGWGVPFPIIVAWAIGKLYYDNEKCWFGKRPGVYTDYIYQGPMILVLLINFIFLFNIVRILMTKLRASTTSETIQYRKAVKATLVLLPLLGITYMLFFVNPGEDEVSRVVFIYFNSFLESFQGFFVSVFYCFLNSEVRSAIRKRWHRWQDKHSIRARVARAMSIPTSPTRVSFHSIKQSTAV
In words: CRF1R agonist activation (EC50 / Emax), called comparative CRF binding. The class given is cell-based. To be noted: for EC50: read-out: CRF1R EC50; for Emax: read-out: CRF1R Emax. The method, boiled down: as §1

Peptide text beside a SMILES is read from it.

For the compound `CC[C@H](C)[C@H](NC(=O)[C@H](C)NC(=O)[C@H](CC(N)=O)NC(=O)[C@H](CCC(N)=O)NC(=O)[C@H](CCC(=O)O)NC(=O)[C@H](C)NC(=O)[C@H](CCCNC(=N)N)NC(=O)[C@H](CCC(=O)O)NC(=O)[C@H](CCCNC(=N)N)NC(=O)[C@H](CCC(N)=O)NC(=O)[C@H](CO)NC(=O)[C@H](CCC(N)=O)NC(=O)[C@@H](NC(=O)[C@H](CCCNC(=N)N)NC(=O)[C@H](C)NC(=O)[C@H](CC(C)C)NC(=O)[C@H](CCC(=O)O)NC(=O)[C@H](CC(C)C)NC(=O)[C@H](CC(C)C)NC(=O)[C@@H](NC(=O)[C@H](CCCNC(=N)N)NC(=O)[C@H](CC(C)C)NC(=O)[C@H](CC(C)C)NC(=O)[C@H](CCC(N)=O)NC(=O)[C@H](Cc1ccccc1)NC(=O)[C@@H]1CCCN1C(=O)[C@H](CC(C)C)NC(=O)[C@H](CC(=O)O)NC(=O)[C@@H](NC(=O)[C@H](CO)NC(=O)[C@H](CC(C)C)NC(=O)[C@H](CO)NC(=O)[C@@H]1CCCN1C(=O)[C@H](CC(N)=O)NC(=O)[C@@H](N)CC(=O)O)[C@@H](C)CC)[C@@H](C)O)[C@@H](C)O)C(=O)N[C@H](C(=O)N[C@@H](Cc1ccccc1)C(=O)N[C@@H](C)C(=O)N[C@@H](CO)C(=O)N[C@H](C(N)=O)C(C)C)[C@@H](C)CC` [compound 182] (H-DNPSLSIDLPFQLLRTLLELARTQSQRERAEQNAIIFASV-NH2; N-terminus assumed), on CRF2R, the 50% effective concentration (EC50) is 0.00721 µM and the Emax came out at 91.4%. On CRF1R, the EC50 turned out to be 0.409 µM and the Emax came out at 89.7%.

For the compound `CC[C@H](C)[C@H](NC(=O)[C@H](C)NC(=O)[C@H](CC(N)=O)NC(=O)[C@H](CCC(N)=O)NC(=O)[C@H](CCC(=O)O)NC(=O)[C@H](C)NC(=O)[C@H](CCCNC(=N)N)NC(=O)[C@H](CCC(=O)O)NC(=O)[C@H](CCCNC(=N)N)NC(=O)[C@H](CCC(N)=O)NC(=O)[C@H](CO)NC(=O)[C@H](CCC(N)=O)NC(=O)[C@@H](NC(=O)[C@H](CCCNC(=N)N)NC(=O)[C@H](C)NC(=O)[C@H](CC(C)C)NC(=O)[C@H](CCC(=O)O)NC(=O)[C@H](CC(C)C)NC(=O)[C@H](CC(C)C)NC(=O)[C@@H](NC(=O)[C@H](CCCNC(=N)N)NC(=O)[C@H](CC(C)C)NC(=O)[C@H](CC(C)C)NC(=O)[C@H](Cc1ccc(O)cc1)NC(=O)[C@H](Cc1ccccc1)NC(=O)[C@@H]1CCCN1C(=O)[C@H](CC(C)C)NC(=O)[C@H](CC(=O)O)NC(=O)[C@@H](NC(=O)[C@H](CO)NC(=O)[C@H](CC(C)C)NC(=O)[C@H](CO)NC(=O)[C@@H]1CCCN1C(=O)[C@H](CC(N)=O)NC(=O)[C@@H](N)CC(=O)O)[C@@H](C)CC)[C@@H](C)O)[C@@H](C)O)C(=O)N[C@H](C(=O)N[C@@H](Cc1ccccc1)C(=O)N[C@@H](C)C(=O)N[C@@H](CO)C(=O)N[C@H](C(N)=O)C(C)C)[C@@H](C)CC` [compound 183] (H-DNPSLSIDLPFYLLRTLLELARTQSQRERAEQNAIIFASV-NH2; N-terminus assumed), the Emax at CRF2R worked out at 100%; on CRF1R, 57.5%.

With `CC[C@H](C)[C@H](NC(=O)[C@H](C)NC(=O)[C@H](CC(N)=O)NC(=O)[C@H](CCC(N)=O)NC(=O)[C@H](CCC(=O)O)NC(=O)[C@H](C)NC(=O)[C@H](CCCNC(=N)N)NC(=O)[C@H](CCC(=O)O)NC(=O)[C@H](CCCNC(=N)N)NC(=O)[C@H](CCC(N)=O)NC(=O)[C@H](CO)NC(=O)[C@H](CCC(N)=O)NC(=O)[C@@H](NC(=O)[C@H](CCCNC(=N)N)NC(=O)[C@H](C)NC(=O)[C@H](CC(C)C)NC(=O)[C@H](CCC(=O)O)NC(=O)[C@H](CC(C)C)NC(=O)[C@H](CC(C)C)NC(=O)[C@@H](NC(=O)[C@H](CCCNC(=N)N)NC(=O)[C@H](CC(C)C)NC(=O)[C@H](CC(C)C)NC(=O)[C@H](Cc1ccccc1)NC(=O)[C@H](Cc1ccccc1)NC(=O)[C@@H]1CCCN1C(=O)[C@H](CC(C)C)NC(=O)[C@H](CC(=O)O)NC(=O)[C@@H](NC(=O)[C@H](CO)NC(=O)[C@H](CC(C)C)NC(=O)[C@H](CO)NC(=O)[C@@H]1CCCN1C(=O)[C@H](CC(N)=O)NC(=O)[C@@H](N)CC(=O)O)[C@@H](C)CC)[C@@H](C)O)[C@@H](C)O)C(=O)N[C@H](C(=O)N[C@@H](Cc1ccccc1)C(=O)N[C@@H](C)C(=O)N[C@@H](CO)C(=O)N[C@H](C(N)=O)C(C)C)[C@@H](C)CC` [compound 184] (H-DNPSLSIDLPFFLLRTLLELARTQSQRERAEQNAIIFASV-NH2; N-terminus assumed), the Emax on CRF2R came to 96.5%; at CRF1R, 77.3%.

Regarding `CC[C@H](C)[C@H](NC(=O)[C@H](C)NC(=O)[C@H](CC(N)=O)NC(=O)[C@H](CCC(N)=O)NC(=O)[C@H](CCC(=O)O)NC(=O)[C@H](C)NC(=O)[C@H](CCCNC(=N)N)NC(=O)[C@H](CCC(=O)O)NC(=O)[C@H](CCCNC(=N)N)NC(=O)[C@H](CCC(N)=O)NC(=O)[C@H](CO)NC(=O)[C@H](CCC(N)=O)NC(=O)[C@@H](NC(=O)[C@H](CCCNC(=N)N)NC(=O)[C@H](C)NC(=O)[C@H](CC(C)C)NC(=O)[C@H](CCC(=O)O)NC(=O)[C@H](CC(C)C)NC(=O)[C@H](CC(C)C)NC(=O)[C@@H](NC(=O)[C@H](CCCNC(=N)N)NC(=O)[C@H](CC(C)C)NC(=O)[C@H](CC(C)C)NC(=O)[C@H](Cc1c[nH]cn1)NC(=O)[C@H](Cc1ccccc1)NC(=O)[C@@H]1CCCN1C(=O)[C@H](CC(C)C)NC(=O)[C@H](CC(=O)O)NC(=O)[C@@H](NC(=O)[C@H](CO)NC(=O)[C@H](CC(C)C)NC(=O)[C@H](CO)NC(=O)[C@@H]1CCCN1C(=O)[C@H](CC(N)=O)NC(=O)[C@@H](N)CC(=O)O)[C@@H](C)CC)[C@@H](C)O)[C@@H](C)O)C(=O)N[C@H](C(=O)N[C@@H](Cc1ccccc1)C(=O)N[C@@H](C)C(=O)N[C@@H](CO)C(=O)N[C@H](C(N)=O)C(C)C)[C@@H](C)CC` [compound 185] (H-DNPSLSIDLPFHLLRTLLELARTQSQRERAEQNAIIFASV-NH2; N-terminus assumed), the EC50 amounted to 0.00898 µM on CRF2R and 0.358 µM on CRF1R. Further, the Emax on CRF2R was 100%; on CRF1R, 95.8%.

In the case of `CC[C@H](C)[C@H](N)C(=O)N[C@H](C(=O)N[C@@H](CC(C)C)C(=O)N[C@@H](CO)C(=O)N[C@@H](CC(C)C)C(=O)N[C@@H](CC(=O)O)C(=O)N[C@H](C(=O)N[C@H](C(=O)N[C@H](C(=O)NCC(=O)N[C@@H](CC(C)C)C(=O)N[C@@H](CC(C)C)C(=O)N[C@@H](CCC(N)=O)C(=O)N[C@H](C(=O)N[C@@H](CC(C)C)C(=O)N[C@@H](CC(C)C)C(=O)N[C@@H](CCC(=O)O)C(=O)N[C@@H](CCC(N)=O)C(=O)N[C@@H](C)C(=O)N[C@@H](CCCNC(=N)N)C(=O)N[C@@H](C)C(=O)N[C@@H](CCCNC(=N)N)C(=O)N[C@@H](C)C(=O)N[C@@H](C)C(=O)N[C@@H](CCCNC(=N)N)C(=O)N[C@@H](CCC(=O)O)C(=O)N[C@@H](CCC(N)=O)C(=O)N[C@@H](C)C(=O)N[C@H](C(=O)N[C@H](C(=O)N[C@@H](CC(N)=O)C(=O)N[C@@H](C)C(=O)N[C@@H](CCCNC(=N)N)C(=O)N[C@H](C(=O)N[C@@H](CC(C)C)C(=O)N[C@@H](C)C(=O)N[C@@H](CCCNC(=N)N)C(=O)N[C@H](C(N)=O)C(C)C)[C@@H](C)CC)[C@@H](C)O)[C@@H](C)O)[C@@H](C)CC)[C@@H](C)CC)C(C)C)C(C)C)C(C)C` [compound 214] (H-IVLSLDVVIGLLQILLEQARARAAREQATTNARILARV-NH2; N-terminus assumed), the Emax was found to be 60% on CRF2R and 4% on CRF1R.

For the compound `CC[C@H](C)[C@H](NC(=O)[C@H](C)NC(=O)[C@H](CC(N)=O)NC(=O)[C@H](CCC(N)=O)NC(=O)[C@H](CCC(=O)O)NC(=O)[C@H](C)NC(=O)[C@H](CCCNC(=N)N)NC(=O)[C@H](CCC(=O)O)NC(=O)[C@H](CCCNC(=N)N)NC(=O)[C@H](CCC(N)=O)NC(=O)[C@H](CO)NC(=O)[C@H](CCC(N)=O)NC(=O)[C@@H](NC(=O)[C@H](CCCNC(=N)N)NC(=O)[C@H](C)NC(=O)[C@H](CC(C)C)NC(=O)[C@H](CCC(=O)O)NC(=O)[C@H](CC(C)C)NC(=O)[C@H](CC(C)C)NC(=O)[C@@H](NC(=O)[C@H](CCCNC(=N)N)NC(=O)[C@H](CC(C)C)NC(=O)[C@H](CC(C)C)NC(=O)[C@H](Cc1ccc(O)cc1)NC(=O)[C@H](Cc1ccc(O)cc1)NC(=O)[C@@H]1CCCN1C(=O)[C@H](CC(C)C)NC(=O)[C@H](CC(=O)O)NC(=O)[C@@H](NC(=O)[C@H](CO)NC(=O)[C@H](CC(C)C)NC(=O)[C@H](CO)NC(=O)[C@@H]1CCCN1C(=O)[C@H](CC(N)=O)NC(=O)[C@@H](N)CC(=O)O)[C@@H](C)CC)[C@@H](C)O)[C@@H](C)O)C(=O)N[C@H](C(=O)N[C@@H](Cc1ccccc1)C(=O)N[C@@H](C)C(=O)N[C@@H](CO)C(=O)N[C@H](C(N)=O)C(C)C)[C@@H](C)CC` [compound 263] (H-DNPSLSIDLPYYLLRTLLELARTQSQRERAEQNAIIFASV-NH2; N-terminus assumed), the maximal effect (Emax) at CRF2R worked out at 93%; on CRF1R, 72%.

For orientation: EC50 means the concentration at which the effect is half-maximal. A word on the Emax: it is the greatest response seen or fitted, relative to the assay's reference.
